The source of these data is US20050124562A1, “Bis-quinazoline compounds for the treatment of bacterial infections” (priority 2003, published 2005).

≈ marks a conversion by molar mass, not a printed value.

For one test, the system named is S. aureus, E. faecalis, S. pyogenes and S. pneumoniae. Description: Broth microdilution MIC (NCCLS), gram-positive strains. The test is classed as cell-based.
Conditions: not given
Here is the method:
Representative bis-quinazolines were tested for antibacterial activity using the […] microdilution method to determine their minimum inhibitory concentrations (MICs). All compounds were tested using standard methods in accordance with NCCLS guidelines (National Committee for Clinical Laboratory Standards. 2003. Methods for dilution antimicrobial susceptibility testing for bacteria that grow aerobically. Approved Standard M-7 A-6, NCCLS, Wayne, Pa.). The bacterial strains used in the susceptibility tests were obtained from the American Type Culture Collection (ATCC) and included resistant phenotypes such as oxacillin-resistant S. aureus (ORSA) and vancomycin-resistant enterococci (VRE). The minimum bactericidal concentrations (MBCs) were determined for selected organisms. The effect of protein binding on the antibacterial activity of representative bis-quinazolines were determined by conducting MIC tests in the presence of human serum.
A general note: Dilution methods test growth across graded concentrations, often in twofold steps.
The term MIC denotes the lowest concentration that inhibits growth of the organism. In the case of `COc1ccc2nc(Nc3nc(O)c4cc(OC)ccc4n3)nc(C)c2c1` [Example 61, 6-Methoxy-2-(6-methoxy-4-methyl-quinazolin-2-ylamino)-quinazolin-4-ol], the MIC lay within 0.06 to 16 µg/mL (≈ 0.165 to 44 µM). In turn, `COc1ccc2nc(Nc3nc(O)c4cc(C)ccc4n3)nc(C)c2c1` [Example 63, 2-(6-Methoxy-4-methyl-quinazolin-2-ylamino)-6-methyl-quinazolin-4-ol] came in with an MIC of 0.06 to 16 µg/mL (≈ 0.173 to 46.1 µM). `COc1cc2nc(Nc3nc(O)c4ccccc4n3)nc(C)c2cc1OC` [Example 52, 2-(6,7-Dimethoxy-4-methyl-quinazolin-2-ylamino)-quinazolin-4-ol] came in with an MIC of 0.06 to 16 µg/mL (≈ 0.165 to 44 µM).

The compound `COc1cccc2c(C)nc(Nc3nc(O)c4cc(C)cc(C)c4n3)nc12` [Example 48, 2-(8-Methoxy-4-methyl-quinazolin-2-ylamino)-6,8-dimethyl-quinazolin-4-ol] gave an MIC of 0.06 to 16 µg/mL (≈ 0.166 to 44.3 µM). With `COc1ccc2nc(Nc3nc(O)c4cccc(OC)c4n3)nc(C)c2c1` [Example 10, 8-Methoxy-2-(6-methoxy-4-methyl-quinazolin-2-ylamino)-quinazolin-4-ol], the MIC lay in the range of 0.06 to 16 µg/mL (≈ 0.165 to 44 µM). As for `Cc1nc(Nc2nc(O)c3ccccc3n2)nc2ccc(O)cc12` [Example 16, 2-(4-Hydroxy-quinazolin-2-ylamino)-4-methyl-quinazolin-6-ol], the MIC lay within 0.06 to 16 µg/mL (≈ 0.188 to 50.1 µM). With `COc1ccc2nc(Nc3nc(O)c4cc(O)ccc4n3)nc(C)c2c1` [Example 60, 2-(6-Methoxy-4-methyl-quinazolin-2-ylamino)-quinazoline-4,6-diol], the MIC lay within 0.06 to 16 µg/mL (≈ 0.172 to 45.8 µM).

With `CCOc1cccc2nc(Nc3nc(C)c4cc(OC)c(OC)cc4n3)nc(O)c12` [Example 13, 2-(6,7-Dimethoxy-4-methyl-quinazolin-2-ylamino)-5-ethoxy-quinazolin-4-ol], the MIC lay in the range of 0.06 to 16 µg/mL (≈ 0.147 to 39.3 µM). In the case of `CCOc1cccc2c(C)nc(Nc3nc(O)c4ccccc4n3)nc12` [Example 59, 2-(8-Ethoxy-4-methyl-quinazolin-2-ylamino)-quinazolin-4-ol], the MIC was 0.06 to 16 µg/mL (≈ 0.173 to 46.1 µM).

The same test, now with this note: range against some strains of S. aureus, E. faecalis, S. pyogenes and S. pneumoniae; read-out: MIC.
As to `COc1cc2c(C)nc(Nc3nc(O)c4cccc(OC)c4n3)nc2cc1N.O=C(O)C(F)(F)F` [Example 76, 2-(6-methoxy-7-amino-4-methyl-quinazolin-2-ylamino)-8-methoxy-quinazolin-4-ol trifluoroacetate salt], the MIC was in the range of 0.06 to 16 µg/mL. Turning to `COc1cc(OC)c2nc(Nc3nc(O)c4c5c(ccc4n3)OCO5)nc(C)c2c1.O=C(O)C(F)(F)F` [Example 130, 7-(6,8-Dimethoxy-4-methyl-quinazolin-2-ylamino)-1,3-dioxa-6,8-diaza-cyclopenta[a]naphthalen-9-ol trifluoroacetate salt], the MIC lay in the range of 0.06 to 16 µg/mL.

For the compound `COc1cc2c(C)nc(Nc3nc(O)c4cccc(OC)c4n3)nc2cc1N(C)C.O=C(O)C(F)(F)F` [Example 127, 2-(7-Dimethylamino-6-methoxy-4-methyl-quinazolin-2-ylamino)-8-methoxy-quinazolin-4-ol trifluoroacetate salt], the MIC lay in the range of 0.06 to 16 µg/mL.

Consider `COc1cc(OC)c2nc(Nc3nc(O)c4c(OC)c(OC)ccc4n3)nc(C)c2c1.Cl` [Example 135, 2-(6,8-Dimethoxy-4-methyl-quinazolin-2-ylamino)-5,6-dimethoxy-quinazolin-4-ol HCl salt], for which the MIC was 0.06 to 16 µg/mL. `COc1cc2nc(Nc3nc(O)c4cc(C)cc(C)c4n3)nc(C)c2cc1OC.O=C(O)C(F)(F)F` [Example 41, 2-(6,7-Dimethoxy-4-methyl-quinazolin-2-ylamino)-6,8-dimethyl-quinazolin-4-ol trifluoroacetate salt]: the MIC fell in the range of 0.06 to 16 µg/mL. `COc1cccc2c(C)nc(Nc3nc(O)c4cc([N+](=O)[O-])cc(C)c4n3)nc12.O=C(O)C(F)(F)F` [Example 68, 2-(8-Methoxy-4-methyl-quinazolin-2-ylamino)-8-methyl-6-nitro-quinazolin-4-ol trifluoroacetate salt]: the MIC was 0.06 to 16 µg/mL. Same read-out and setting: next, `COc1ccc2nc(Nc3nc(O)c4cccc(O)c4n3)nc(C)c2c1.O=C(O)C(F)(F)F` [Example 71, 2-(6-Methoxy-4-methyl-quinazolin-2-ylamino)-quinazoline-4,8-diol trifluoroacetate salt]: 0.06 to 16 µg/mL; `COCCOc1ccc2nc(Nc3nc(O)c4cccc(OC)c4n3)nc(C)c2c1.O=C(O)C(F)(F)F` [Example 80, 8-Methoxy-2-[6-(2-methoxy-ethoxy)-4-methyl-quinazolin-2-ylamino]-quinazolin-4-ol trifluoroacetate salt]: 0.06 to 16 µg/mL; `CCN(CCO)CCOc1ccc2nc(Nc3nc(C)c4cc(OC)cc(OC)c4n3)nc(O)c2c1.O=C(O)C(F)(F)F` [Example 167, 2-(6,8-Dimethoxy-4-methyl-quinazolin-2-ylamino)-6-{2-[ethyl-(2-hydroxy-ethyl)-amino]-ethoxy}-quinazolin-4-ol trifluoroacetate salt]: 0.06 to 16 µg/mL.

As to `COc1ccc2c(C)nc(Nc3nc(O)c4cccc(OC)c4n3)nc2c1OC.O=C(O)C(F)(F)F` [Example 78, 2-(7,8-Dimethoxy-4-methyl-quinazolin-2-ylamino)-8-methoxy-quinazolin-4-ol trifluoroacetate salt], the MIC was in the range of 0.06 to 16 µg/mL. For `COc1cc2nc(Nc3nc(O)c4cc(OCCN5CC(C)OC(C)C5)ccc4n3)nc(C)c2cc1OC.O=C(O)C(F)(F)F` (stereo not drawn) [Example 177, 2-(6,7-Dimethoxy-4-methyl-quinazolin-2-ylamino)-6-[2-(2,6-dimethyl-morpholin-4-yl)-ethoxy]-quinazolin-4-ol trifluoroacetate salt], the MIC lay within 0.06 to 16 µg/mL.

As for `COCCOc1ccc2nc(Nc3nc(O)c4cc(N)cc(C)c4n3)nc(C)c2c1.O=C(O)C(F)(F)F` [Example 70, 6-Amino-2-[6-(2-methoxy-ethoxy)-4-methyl-quinazolin-2-ylamino]-8-methyl-quinazolin-4-ol trifluoroacetate salt], the minimum inhibitory concentration (MIC) fell in the range of 0.06 to 16 µg/mL. For `COc1cccc2c(C)nc(Nc3nc(O)c4cccc(O)c4n3)nc12.O=C(O)C(F)(F)F` [Example 72, 2-(8-Methoxy-4-methyl-quinazolin-2-ylamino)-quinazoline-4,8-diol trifluoroacetate salt], the MIC fell in the range of 0.06 to 16 µg/mL. Consider `COc1ccc2c(C)nc(Nc3nc(O)c4cc(C)cc(C)c4n3)nc2c1OC.O=C(O)C(F)(F)F` [Example 73, 2-(7,8-Dimethoxy-4-methyl-quinazolin-2-ylamino)-6,8-dimethyl-quinazolin-4-ol trifluoroacetate salt], for which the MIC was in the range of 0.06 to 16 µg/mL. As for `COc1ccc(OC)c2c(C)nc(Nc3nc(O)c4ccccc4n3)nc12.O=C(O)C(F)(F)F` [Example 27, 2-(5,8-Dimethoxy-4-methyl-quinazolin-2-ylamino)-quinazolin-4-ol trifluoroacetate salt], the MIC was 0.06 to 16 µg/mL.

Take `COc1cc(OC)c2nc(Nc3nc(O)c4cc(OCCCl)ccc4n3)nc(C)c2c1.O=C(O)C(F)(F)F` [Example 107, 6-(2-Chloro-ethoxy)-2-(6,8-dimethoxy-4-methyl-quinazolin-2-ylamino)-quinazolin-4-ol trifluoroacetate salt]: the MIC lay in the range of 0.06 to 16 µg/mL.

As for `COc1cc2nc(Nc3nc(O)c4cc(OCCN5CCCC5CN5CCCC5)ccc4n3)nc(C)c2cc1OC.O=C(O)C(F)(F)F` (stereo not drawn) [Example 180, 2-(6,7-Dimethoxy-4-methyl-quinazolin-2-ylamino)-6-[2-(2-pyrrolidin-1-ylmethyl-pyrrolidin-1-yl)-ethoxy]-quinazolin-4-ol trifluoroacetate salt], the MIC lay within 0.06 to 16 µg/mL. With `COCCOc1c(OC)ccc2c(C)nc(Nc3nc(O)c4cccc(OC)c4n3)nc12.O=C(O)C(F)(F)F` [Example 81, 8-Methoxy-2-[7-methoxy-8-(2-methoxy-ethoxy)-4-methyl-quinazolin-2-ylamino]-quinazolin-4-ol trifluoroacetate salt], the MIC was 0.06 to 16 µg/mL.

As for `COc1cc2nc(Nc3nc(O)c4c(N(C)C)cccc4n3)nc(C)c2cc1OC.O=C(O)C(F)(F)F` [Example 128, 2-(6,7-Dimethoxy-4-methyl-quinazolin-2-ylamino)-5-dimethylamino-quinazolin-4-ol trifluoroacetate salt], the MIC is 0.06 to 16 µg/mL.

As for `COc1ccc([N+](=O)[O-])c2c(C)nc(Nc3nc(O)c4cc(C)cc(C)c4n3)nc12.O=C(O)C(F)(F)F` [Example 30, 2-(8-Methoxy-4-methyl-5-nitro-quinazolin-2-ylamino)-6,8-dimethyl-quinazolin-4-ol, trifluoroacetate salt], the MIC is 0.06 to 16 µg/mL. On to `COc1cc(OC)c2nc(Nc3nc(O)c4cc([N+](=O)[O-])cc(C)c4n3)nc(C)c2c1.O=C(O)C(F)(F)F` [Example 67, 2-(6,8-Dimethoxy-4-methyl-quinazolin-2-ylamino)-8-methyl-6-nitro-quinazolin-4-ol trifluoroacetate salt], for which the MIC fell in the range of 0.06 to 16 µg/mL. Same read-out and setting: then `COc1cc2c(C)nc(Nc3nc(O)c4ccccc4n3)nc2cc1F.O=C(O)C(F)(F)F` [Example 32, 2-(7-Fluoro-6-methoxy-4-methyl-quinazolin-2-ylamino)-quinazolin-4-ol trifluoroacetate salt], with 0.06 to 16 µg/mL; and `COc1cc2nc(Nc3nc(O)c4cc(OCCN(C)Cc5ccncc5)ccc4n3)nc(C)c2cc1OC.O=C(O)C(F)(F)F` [Example 184, 2-(6,7-Dimethoxy-4-methyl-quinazolin-2-ylamino)-6-[2-(methyl-pyridin-4-ylmethyl-amino)-ethoxy]-quinazolin-4-ol TFA salt], with 0.06 to 16 µg/mL. In the case of `COc1cc(OC)c2nc(Nc3nc(O)c4cc(OCCN5CCCC5CO)ccc4n3)nc(C)c2c1.O=C(O)C(F)(F)F` (stereo not drawn) [Example 168, 2-(6,8-Dimethoxy-4-methyl-quinazolin-2-ylamino)-6-[2-(2-hydroxymethyl-pyrrolidin-1-yl)-ethoxy]-quinazolin-4-ol trifluoroacetate salt], the MIC was in the range of 0.06 to 16 µg/mL.
